Reference: ChEMBL document CHEMBL1201862, “PubChem BioAssay data set” (2004)
Activity calls are given as the source filed them.

Key:
[1] = system: A-375; assay: MITF: Counter assay: A375 proliferation Measured in Cell-Based System Using Plate Reader - 2084-03_Inhibitor_Dose_DryPowder_Activity. [Related pubchem assays (depositor defined):AID488944]; type: functional; details: Homo sapiens
[2] = target: T1, Microphthalmia-associated transcription factor (Homo sapiens, UniProt O75030); assay: TRPM1 promoter luciferase signal decrease, dose response, MITF inhibitor project, cell-based, SK-MEL-5, cherry-picked, set 3 (AID 493073); type: functional
T1 sequence (O75030 whole entry): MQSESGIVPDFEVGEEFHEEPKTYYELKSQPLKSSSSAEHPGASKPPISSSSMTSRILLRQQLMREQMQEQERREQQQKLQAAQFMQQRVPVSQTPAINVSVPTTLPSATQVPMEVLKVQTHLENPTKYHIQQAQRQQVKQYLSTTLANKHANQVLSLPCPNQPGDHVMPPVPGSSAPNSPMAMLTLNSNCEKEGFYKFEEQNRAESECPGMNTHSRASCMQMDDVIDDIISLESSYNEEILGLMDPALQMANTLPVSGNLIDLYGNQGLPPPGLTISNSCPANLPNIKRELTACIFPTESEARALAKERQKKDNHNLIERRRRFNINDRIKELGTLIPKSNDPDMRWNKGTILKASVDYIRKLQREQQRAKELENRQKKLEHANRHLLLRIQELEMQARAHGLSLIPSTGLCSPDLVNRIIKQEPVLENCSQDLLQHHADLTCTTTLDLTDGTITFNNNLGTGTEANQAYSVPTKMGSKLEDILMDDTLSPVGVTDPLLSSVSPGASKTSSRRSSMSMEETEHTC

[3] = growth suppression of PTEN-null colon cells, dose response, cell-based, HCT116 PTEN knockout (AID 1047); type: functional;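 further: HCT116 colon tumor cells with PTEN knocked out; cells exposed to compound for 60 hours before readout; potency for loss of cell viability measured by luminescence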
[4] = Vero cell cytotoxicity, dose response, cytotoxicity control for Vif-APOBEC3G degradation inhibitor project, Vero cells (AID 1117358); type: functional; details: Human immunodeficiency virus 1, Vero
[5] = insulin promoter down-regulators in MIN6 cells, imaging, high-content screening, mouse beta cells (AID 1628); type: functional
[6] = inhibitors of PGC1a acetylation in cells, dose response, cell-based, cherry-picked samples (AID 720514); type: functional;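 further: potency may reflect raised or lowered acetylation signal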
[7] = cytotoxicity in MIN6 insulinoma cells, dose response, cytotoxicity control, cell-based, mouse insulinoma (AID 2122); type: functional;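 further: confirmatory high-throughput counterscreen run to flag cytotoxic compounds; mouse MIN-6 beta cells carrying an insulin promoter eGFP reporter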
[8] = microbe, parasite or virus in culture; type: functional; details: Mycobacterium tuberculosis
[9] = growth suppression of beta-catenin-knockout colon cells, dose response, cell-based, HCT116, human colon tumor (AID 1045); type: functional;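 further: HCT116 colon tumor cells with beta catenin knocked out; cells exposed to compound for 60 hours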
[10] = target: T2, Nuclear receptor subfamily 0 group B member 1 (Homo sapiens, UniProt P51843); assay: Luminescence-based cell-based high throughput dose response assay for inhibitors of the orphan nuclear receptor subfamily 0, group B, member 1 (DAX1; NR0B1). [Related pubchem assays (depositor defined):AID504766, AID504790]; type: functional
T2 sequence (P51843 whole entry): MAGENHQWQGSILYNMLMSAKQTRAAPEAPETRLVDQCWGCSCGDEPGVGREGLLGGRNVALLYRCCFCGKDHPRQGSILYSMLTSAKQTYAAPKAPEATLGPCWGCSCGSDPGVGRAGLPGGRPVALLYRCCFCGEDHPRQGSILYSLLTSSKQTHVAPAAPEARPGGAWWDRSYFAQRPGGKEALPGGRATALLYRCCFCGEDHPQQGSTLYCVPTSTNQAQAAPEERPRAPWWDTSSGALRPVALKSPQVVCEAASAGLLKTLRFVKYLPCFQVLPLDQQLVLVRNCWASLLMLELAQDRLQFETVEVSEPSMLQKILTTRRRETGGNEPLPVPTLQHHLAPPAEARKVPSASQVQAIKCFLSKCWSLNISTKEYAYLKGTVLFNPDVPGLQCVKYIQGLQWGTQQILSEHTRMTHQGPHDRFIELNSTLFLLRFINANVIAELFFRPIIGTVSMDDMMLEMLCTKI

[11] = system: HEK293; assay: cells; type: functional, cell-based; details: Homo sapiens
[12] = target: FAD-linked sulfhydryl oxidase ALR (Homo sapiens, UniProt P55789); assay: inhibitors of human ALR sulfhydryl oxidase, dose response, biochemical, H2O2 detection, luminescence, cherry-pick (AID 493248)
FAD-linked sulfhydryl oxidase ALR, sequence (P55789 whole entry): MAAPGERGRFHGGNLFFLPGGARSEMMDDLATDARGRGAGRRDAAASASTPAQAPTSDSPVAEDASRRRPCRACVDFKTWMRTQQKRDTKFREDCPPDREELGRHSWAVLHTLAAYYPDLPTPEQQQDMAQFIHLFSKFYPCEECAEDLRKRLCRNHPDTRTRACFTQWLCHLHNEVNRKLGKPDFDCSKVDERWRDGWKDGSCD

[13] = NIH-3T3 fibroblast cytotoxicity, dose response, cytotoxicity control, cell-based, fluorescence, Alamar Blue, secondary assay (AID 2327); type: functional;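 further: NIH-3T3 mouse fibroblasts cultured with fluconazole at 8 µg/mL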
[14] = THP-1 cell cytotoxicity, dose response, cytotoxicity control for non-replicating M. tuberculosis project (AID 489025); type: functional
[15] = Vero E6 cell cytotoxicity, dose response, cytotoxicity control for non-replicating M. tuberculosis project, secondary assay (AID 492998); type: functional, VeroE6; details: Vero C1008
[16] = system: Streptococcus; assay: Group A Streptococcus viability loss, dose response, counter-screen for streptokinase expression inhibitor project, luminescence, BacTiterGlo (AID 1915); type: functional, organism-based;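 further: potency for reduction of bacterial viability or growth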
[17] = C. albicans growth with fluconazole, confirmation, fluorescence, retest (AID 2467); type: functional, cell-based
[18] = target: ATP-dependent molecular chaperone HSP82 (Candida albicans (strain WO-1) (Yeast), UniProt C4YTQ8); assay: loss of DOC-induced GRE-beta-galactosidase reporter signal, dose response, Hsp90 inhibitor project, S. cerevisiae, luminescence (AID 2400); type: functional, cell-based;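 further: beta-galactosidase luminescence from glucocorticoid response element reporter as proxy for Hsp90 function; inhibitor potency where signal loss means Hsp90 inhibition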
ATP-dependent molecular chaperone HSP82, sequence (C4YTQ8 whole entry): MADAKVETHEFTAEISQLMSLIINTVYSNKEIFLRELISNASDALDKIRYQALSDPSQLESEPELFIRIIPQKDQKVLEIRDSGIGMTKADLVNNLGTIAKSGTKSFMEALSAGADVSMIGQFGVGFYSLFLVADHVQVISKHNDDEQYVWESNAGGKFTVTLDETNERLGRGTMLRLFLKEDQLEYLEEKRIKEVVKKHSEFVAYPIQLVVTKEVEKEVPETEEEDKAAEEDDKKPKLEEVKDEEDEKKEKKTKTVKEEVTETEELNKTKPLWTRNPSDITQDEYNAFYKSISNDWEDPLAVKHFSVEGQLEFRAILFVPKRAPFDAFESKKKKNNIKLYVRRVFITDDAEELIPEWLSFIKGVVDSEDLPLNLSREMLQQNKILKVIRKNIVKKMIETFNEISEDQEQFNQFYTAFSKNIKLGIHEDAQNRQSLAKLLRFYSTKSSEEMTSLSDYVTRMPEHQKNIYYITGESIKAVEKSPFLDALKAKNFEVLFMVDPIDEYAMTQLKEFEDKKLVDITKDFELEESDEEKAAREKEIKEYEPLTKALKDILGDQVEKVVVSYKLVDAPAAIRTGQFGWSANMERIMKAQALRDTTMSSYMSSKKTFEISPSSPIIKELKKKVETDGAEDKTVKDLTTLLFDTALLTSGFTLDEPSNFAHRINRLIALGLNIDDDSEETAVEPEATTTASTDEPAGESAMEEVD

[19] = target: T3, Serine/threonine-protein phosphatase (Candida dubliniensis (strain CD36 / CBS 7987 / NCPF 3949 / NRRLY-17841) (Yeast), UniProt B9W6M3); assay: calcineurin pathway inhibitors in yeast reporter, dose response, S. cerevisiae, CDRE-lacZ, luminescence, secondary (AID 2388); type: functional, cell-based;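 further: yeast reporter cells carrying a calcineurin-responsive lacZ construct stimulated with calcium chloride; luminescent beta-galactosidase reporter signal in whole cells rather than isolated phosphatase activity; potency for inhibition where a drop in reporter signal means calcineurin blockade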
T3 sequence (B9W6M3 whole entry): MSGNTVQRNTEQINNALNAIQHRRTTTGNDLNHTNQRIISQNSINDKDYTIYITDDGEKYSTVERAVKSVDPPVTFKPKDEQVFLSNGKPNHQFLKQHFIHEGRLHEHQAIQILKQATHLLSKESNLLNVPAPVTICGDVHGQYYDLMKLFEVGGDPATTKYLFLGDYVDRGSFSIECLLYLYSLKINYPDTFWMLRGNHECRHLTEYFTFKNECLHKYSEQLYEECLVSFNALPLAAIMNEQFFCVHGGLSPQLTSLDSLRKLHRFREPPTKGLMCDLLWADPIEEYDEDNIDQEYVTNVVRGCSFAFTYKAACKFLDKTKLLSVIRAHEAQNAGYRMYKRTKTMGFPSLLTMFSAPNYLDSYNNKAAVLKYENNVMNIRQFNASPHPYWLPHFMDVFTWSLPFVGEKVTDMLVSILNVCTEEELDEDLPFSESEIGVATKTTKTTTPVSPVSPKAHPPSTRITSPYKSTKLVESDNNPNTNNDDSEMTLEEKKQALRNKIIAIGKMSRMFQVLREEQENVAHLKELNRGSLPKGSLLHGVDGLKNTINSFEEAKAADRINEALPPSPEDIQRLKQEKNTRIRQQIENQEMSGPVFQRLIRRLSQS

[20] = target: T4, Streptokinase A (Streptococcus pyogenes serotype M1, UniProt P10520); assay: S. pyogenes streptokinase expression inhibitors, potency, dose response, plasminogen activation absorbance, OD405 (AID 1914); type: functional, Streptococcus pyogenes M1 GAS;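 further: secreted streptokinase activity via plasminogen activation per viability signal from cell pellet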
T4 sequence (P10520 whole entry): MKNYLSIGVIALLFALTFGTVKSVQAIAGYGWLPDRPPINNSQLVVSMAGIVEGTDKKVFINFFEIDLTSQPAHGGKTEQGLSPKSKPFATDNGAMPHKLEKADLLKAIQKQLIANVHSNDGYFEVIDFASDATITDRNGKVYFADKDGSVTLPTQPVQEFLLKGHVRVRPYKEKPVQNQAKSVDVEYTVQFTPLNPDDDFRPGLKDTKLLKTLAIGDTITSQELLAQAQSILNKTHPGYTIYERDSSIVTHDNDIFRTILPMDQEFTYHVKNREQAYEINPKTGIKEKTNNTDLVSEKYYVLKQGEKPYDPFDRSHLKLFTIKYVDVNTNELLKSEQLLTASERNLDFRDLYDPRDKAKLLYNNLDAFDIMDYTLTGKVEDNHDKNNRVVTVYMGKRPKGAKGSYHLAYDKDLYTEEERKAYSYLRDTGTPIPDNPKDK

[21] = system: Streptococcus sp. 'group A'; assay: growth inhibition of control SK(-) GAS strain, dose response, counter-screen for streptokinase expression inhibitor project, luminescence, kanamycin, BacTiterGlo, confirmation (AID 1900); type: functional, organism-based
[22] = cells; type: functional
[23] = target: Genome polyprotein (dengue virus type 2, UniProt P29990); assay: Dengue-2 NS5 methyltransferase inhibitors, primary screen, biochemical, confirmation dose response (AID 588689); type: functional
Genome polyprotein, sequence (P29990 2492-3391 limits assumed): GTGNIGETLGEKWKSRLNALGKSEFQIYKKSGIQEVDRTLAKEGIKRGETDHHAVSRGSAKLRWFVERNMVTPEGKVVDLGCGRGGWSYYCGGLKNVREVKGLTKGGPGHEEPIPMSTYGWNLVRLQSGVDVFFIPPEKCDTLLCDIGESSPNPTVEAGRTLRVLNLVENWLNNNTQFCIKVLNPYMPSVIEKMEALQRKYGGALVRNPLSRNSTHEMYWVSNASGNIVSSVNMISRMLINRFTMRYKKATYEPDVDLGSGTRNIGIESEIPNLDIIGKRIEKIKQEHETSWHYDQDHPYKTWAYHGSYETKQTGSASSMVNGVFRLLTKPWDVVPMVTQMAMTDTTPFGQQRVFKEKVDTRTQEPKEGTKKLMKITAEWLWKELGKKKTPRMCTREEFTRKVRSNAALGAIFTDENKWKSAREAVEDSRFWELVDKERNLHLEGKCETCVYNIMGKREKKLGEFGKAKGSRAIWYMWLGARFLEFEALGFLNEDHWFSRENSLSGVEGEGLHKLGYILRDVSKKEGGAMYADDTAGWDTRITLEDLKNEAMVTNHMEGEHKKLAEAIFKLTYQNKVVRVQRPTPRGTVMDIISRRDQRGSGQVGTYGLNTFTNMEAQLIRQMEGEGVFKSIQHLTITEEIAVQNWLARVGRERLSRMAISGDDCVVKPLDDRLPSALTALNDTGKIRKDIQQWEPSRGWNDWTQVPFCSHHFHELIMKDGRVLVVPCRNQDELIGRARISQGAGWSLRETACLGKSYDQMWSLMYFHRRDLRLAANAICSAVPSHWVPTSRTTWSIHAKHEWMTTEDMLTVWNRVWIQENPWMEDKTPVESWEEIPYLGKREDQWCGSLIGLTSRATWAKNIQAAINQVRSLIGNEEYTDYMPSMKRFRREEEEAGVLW

[24] = target: 5-hydroxytryptamine receptor 5A (Homo sapiens, UniProt P47898); assay: Counterscreen for agonists of OPRM1-OPRD1 heterodimerization: luminescence-based cell-based high throughput dose response assay to identify agonists of 5-hydroxytryptamine (serotonin) 5A receptor (HTR5A). [Related pubchem assays (depositor defined):AID504326, AID504355, AID504692, AID504904, AID504905]; type: functional
5-hydroxytryptamine receptor 5A, sequence (P47898 whole entry): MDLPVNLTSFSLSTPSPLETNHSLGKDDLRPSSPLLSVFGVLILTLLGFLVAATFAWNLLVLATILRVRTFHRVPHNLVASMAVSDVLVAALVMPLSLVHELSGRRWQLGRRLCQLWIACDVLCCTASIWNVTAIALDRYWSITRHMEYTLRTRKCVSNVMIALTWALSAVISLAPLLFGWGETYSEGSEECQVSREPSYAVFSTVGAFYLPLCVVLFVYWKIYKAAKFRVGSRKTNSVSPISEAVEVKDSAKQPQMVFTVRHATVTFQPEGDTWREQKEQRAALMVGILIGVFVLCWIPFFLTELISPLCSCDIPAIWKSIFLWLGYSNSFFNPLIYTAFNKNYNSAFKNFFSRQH

[25] = target: Delta-type opioid receptor (Homo sapiens, UniProt P41143); assay: Counterscreen for agonists of heterodimerization of the mu 1 (OPRM1) and delta 1 (OPRD1) opioid receptors: Luminescence-based cell-based high throughput dose response assay to identify agonists of OPRD1 homodimerization. [Related pubchem assays (depositor defined):AID504326, AID504355, AID504692, AID504904, AID504905]; type: functional
Delta-type opioid receptor, sequence (P41143 whole entry): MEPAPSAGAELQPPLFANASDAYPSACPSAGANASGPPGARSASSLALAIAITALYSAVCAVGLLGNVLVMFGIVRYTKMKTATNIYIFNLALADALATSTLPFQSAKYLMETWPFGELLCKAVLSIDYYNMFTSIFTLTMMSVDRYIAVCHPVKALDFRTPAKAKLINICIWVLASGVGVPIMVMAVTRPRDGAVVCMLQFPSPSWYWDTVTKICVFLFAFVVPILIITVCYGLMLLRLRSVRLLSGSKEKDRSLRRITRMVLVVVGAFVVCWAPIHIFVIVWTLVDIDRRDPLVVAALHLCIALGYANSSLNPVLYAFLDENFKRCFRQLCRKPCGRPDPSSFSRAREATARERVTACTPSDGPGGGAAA

[26] = target: Mu-type opioid receptor (Homo sapiens, UniProt P35372); assay: Counterscreen for agonists of heterodimerization of the mu 1 (OPRM1) and delta 1 (OPRD1) opioid receptors: Luminescence-based cell-based high throughput dose response assay to identify agonists of OPRM1 homodimerization.; type: functional;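 further: U2OS cells expressing OPRM1 and beta-arrestin as split beta-galactosidase partners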
Mu-type opioid receptor, sequence (P35372 whole entry): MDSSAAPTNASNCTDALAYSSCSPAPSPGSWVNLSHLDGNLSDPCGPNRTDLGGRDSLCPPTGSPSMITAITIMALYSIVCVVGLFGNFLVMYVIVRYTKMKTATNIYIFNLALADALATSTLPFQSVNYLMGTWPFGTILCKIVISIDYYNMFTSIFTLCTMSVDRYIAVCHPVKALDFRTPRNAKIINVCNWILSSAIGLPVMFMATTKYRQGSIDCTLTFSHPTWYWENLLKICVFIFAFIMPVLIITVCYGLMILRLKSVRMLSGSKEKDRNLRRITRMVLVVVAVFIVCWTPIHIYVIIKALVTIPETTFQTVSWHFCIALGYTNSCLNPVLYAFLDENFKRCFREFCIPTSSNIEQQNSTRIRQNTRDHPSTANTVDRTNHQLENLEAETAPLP

[27] = target: T5, Corticotropin-releasing factor receptor 2/Corticotropin-releasing factor-binding protein (Homo sapiens, UniProt P24387+Q13324); assay: Dose Response confirmation of uHTS hits for small molecule antagonists of the CRF-binding protein and CRF-R2 receptor complex.; type: functional; details: read-out: IC50_Mean
T5 sequence (Q13324 whole entry): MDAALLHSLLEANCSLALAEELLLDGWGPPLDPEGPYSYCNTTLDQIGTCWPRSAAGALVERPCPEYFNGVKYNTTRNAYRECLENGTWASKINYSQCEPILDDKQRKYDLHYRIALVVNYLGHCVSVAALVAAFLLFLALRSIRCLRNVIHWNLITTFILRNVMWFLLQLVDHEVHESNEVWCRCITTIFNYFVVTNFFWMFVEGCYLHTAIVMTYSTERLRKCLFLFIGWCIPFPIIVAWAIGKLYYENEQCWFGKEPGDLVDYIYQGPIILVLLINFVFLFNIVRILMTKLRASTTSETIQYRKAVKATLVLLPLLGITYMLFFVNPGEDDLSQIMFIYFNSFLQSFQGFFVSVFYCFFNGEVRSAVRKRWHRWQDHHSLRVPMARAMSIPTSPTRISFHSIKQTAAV
T5 sequence (P24387 whole entry): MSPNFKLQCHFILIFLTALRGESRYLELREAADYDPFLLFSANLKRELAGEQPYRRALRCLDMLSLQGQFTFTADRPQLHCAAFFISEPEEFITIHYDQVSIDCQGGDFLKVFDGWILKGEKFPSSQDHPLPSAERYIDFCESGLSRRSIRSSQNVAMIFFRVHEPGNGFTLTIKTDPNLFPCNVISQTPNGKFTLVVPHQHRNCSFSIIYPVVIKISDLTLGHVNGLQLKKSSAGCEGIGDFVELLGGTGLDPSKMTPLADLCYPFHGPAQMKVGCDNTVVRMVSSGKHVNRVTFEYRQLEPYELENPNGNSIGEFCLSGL

[28] = target: T5, Corticotropin-releasing factor receptor 2/Corticotropin-releasing factor-binding protein; assay: activators of CRF receptor 2 with binding protein – uHTS hits, confirmation (AID 602473); type: functional; details: read-out: EC50_Mean

COc1ccc(-c2cc(-c3ccccc3)c(C#N)c([S+](C)[O-])n2)cc1 (stereo unspecified)
active: AC50 [1] 20.2 µM | AC50 [2] 11.8 µM | EC50 [3] 3.33 µM | CC50 [4] 31.4 µM | IC50 [5] 2.05 µM | AC50 [6] 4.89 µM | IC50 [7] 2.76 µM | CC50 [8] 23 µM | EC50 [9] 2.12 µM

COc1ccc(Nc2[nH]nc(N)c2C(N)=O)cc1
active: AC50 [12] 2.71 µM
inactive: IC50 [10] > 67.5 µM | IC50 [11] > 67.5 µM

CCCn1nnnc1NC(=O)c1ccc2ccccc2c1
> 150 µM (not active): EC50 [16] | EC50 [20]
active: EC50 [13] 121 µM | CC50 [14] 39.5 µM | CC50 [15] > 20 µM | EC50 [17] 0.505 µM | EC50 [18] 82.2 µM | EC50 [21] 1.59 µM | IC50 [22] 0.9 µM
inactive: EC50 [19] > 180 µM

COc1ccccc1/C=C1\SC(=S)N(NS(=O)(=O)c2ccccc2)C1=O
inactive: EC50 [19] > 180 µM
inconclusive: EC50 [13] > 150 µM
active: IC50 [23] 36.2 µM | EC50 [17] 0.94 µM | EC50 [18] 18.2 µM

OCC1(CCc2ccccc2)CCN(Cc2cc(F)ccc2-n2cccn2)CC1
inactive: EC50 [24] > 92.5 µM | EC50 [25] > 92.5 µM | EC50 [26] > 92.5 µM

Cc1nc(-c2ccncc2)nc(NCCNc2ccc(C(F)(F)F)cn2)c1Cl
inactive: IC50 [27] > 47.1 µM | EC50 [28] > 53 µM | IC50 [10] > 67.5 µM | IC50 [11] > 67.5 µM

C/C(CC(=O)Nc1ccc(Cl)cc1C(F)(F)F)=N\NC(=O)c1cccs1
inactive: IC50 [10] > 67.6 µM | IC50 [11] > 67.6 µM
